Data: ChEMBL document CHEMBL5214957
One block for each compound: values may come before it.

Legend:
Assay type in all cases: cell-based
[1] = target: T1, Potassium channel subfamily T member 1 (Homo sapiens, UniProt Q5JUK3); assay: Inhibition of wild-type human Slack expressed in HEK293 cells measured by thallium flux assay
T1 sequence (Q5JUK3 whole entry): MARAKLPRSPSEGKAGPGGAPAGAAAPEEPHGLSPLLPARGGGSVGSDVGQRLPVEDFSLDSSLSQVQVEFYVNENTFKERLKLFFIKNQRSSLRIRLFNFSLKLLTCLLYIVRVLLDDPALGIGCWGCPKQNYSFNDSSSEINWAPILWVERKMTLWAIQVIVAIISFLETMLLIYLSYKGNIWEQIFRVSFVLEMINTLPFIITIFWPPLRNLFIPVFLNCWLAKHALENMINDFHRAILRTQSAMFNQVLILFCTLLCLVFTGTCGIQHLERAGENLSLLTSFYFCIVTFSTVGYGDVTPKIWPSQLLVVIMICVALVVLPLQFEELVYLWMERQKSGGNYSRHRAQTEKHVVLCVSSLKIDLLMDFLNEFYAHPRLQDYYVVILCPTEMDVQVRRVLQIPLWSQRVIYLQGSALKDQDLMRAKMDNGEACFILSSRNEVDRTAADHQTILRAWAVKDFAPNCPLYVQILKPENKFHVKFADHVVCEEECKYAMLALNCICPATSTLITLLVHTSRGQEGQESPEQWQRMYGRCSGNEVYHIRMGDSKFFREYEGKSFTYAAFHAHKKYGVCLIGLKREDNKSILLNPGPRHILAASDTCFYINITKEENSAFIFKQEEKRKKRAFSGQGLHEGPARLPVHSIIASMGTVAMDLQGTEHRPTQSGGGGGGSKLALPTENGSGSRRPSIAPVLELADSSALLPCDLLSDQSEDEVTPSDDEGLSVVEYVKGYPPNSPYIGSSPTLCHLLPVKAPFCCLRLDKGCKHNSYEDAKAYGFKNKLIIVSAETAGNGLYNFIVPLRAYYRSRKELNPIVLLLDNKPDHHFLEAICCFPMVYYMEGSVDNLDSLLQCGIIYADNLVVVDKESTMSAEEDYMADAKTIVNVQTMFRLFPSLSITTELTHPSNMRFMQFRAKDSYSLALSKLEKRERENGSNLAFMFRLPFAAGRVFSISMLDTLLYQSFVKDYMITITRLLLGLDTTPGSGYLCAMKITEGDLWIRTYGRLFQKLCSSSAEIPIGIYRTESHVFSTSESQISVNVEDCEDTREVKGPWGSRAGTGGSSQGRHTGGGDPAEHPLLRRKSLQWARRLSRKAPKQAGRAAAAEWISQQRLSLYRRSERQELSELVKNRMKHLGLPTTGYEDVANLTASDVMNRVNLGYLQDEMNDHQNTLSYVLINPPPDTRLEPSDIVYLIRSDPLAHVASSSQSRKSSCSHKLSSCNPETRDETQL

[2] = target: T1, Potassium channel subfamily T member 1; assay: Activation of wild-type human Slack expressed in HEK293 cells measured by thallium flux assay
[3] = target: T2, Potassium channel subfamily T member 2 (Homo sapiens, UniProt Q6UVM3); assay: Inhibition of Slick (unknown origin) expressed in HEK293 cells measured by thallium flux assay
T2 sequence (Q6UVM3 whole entry): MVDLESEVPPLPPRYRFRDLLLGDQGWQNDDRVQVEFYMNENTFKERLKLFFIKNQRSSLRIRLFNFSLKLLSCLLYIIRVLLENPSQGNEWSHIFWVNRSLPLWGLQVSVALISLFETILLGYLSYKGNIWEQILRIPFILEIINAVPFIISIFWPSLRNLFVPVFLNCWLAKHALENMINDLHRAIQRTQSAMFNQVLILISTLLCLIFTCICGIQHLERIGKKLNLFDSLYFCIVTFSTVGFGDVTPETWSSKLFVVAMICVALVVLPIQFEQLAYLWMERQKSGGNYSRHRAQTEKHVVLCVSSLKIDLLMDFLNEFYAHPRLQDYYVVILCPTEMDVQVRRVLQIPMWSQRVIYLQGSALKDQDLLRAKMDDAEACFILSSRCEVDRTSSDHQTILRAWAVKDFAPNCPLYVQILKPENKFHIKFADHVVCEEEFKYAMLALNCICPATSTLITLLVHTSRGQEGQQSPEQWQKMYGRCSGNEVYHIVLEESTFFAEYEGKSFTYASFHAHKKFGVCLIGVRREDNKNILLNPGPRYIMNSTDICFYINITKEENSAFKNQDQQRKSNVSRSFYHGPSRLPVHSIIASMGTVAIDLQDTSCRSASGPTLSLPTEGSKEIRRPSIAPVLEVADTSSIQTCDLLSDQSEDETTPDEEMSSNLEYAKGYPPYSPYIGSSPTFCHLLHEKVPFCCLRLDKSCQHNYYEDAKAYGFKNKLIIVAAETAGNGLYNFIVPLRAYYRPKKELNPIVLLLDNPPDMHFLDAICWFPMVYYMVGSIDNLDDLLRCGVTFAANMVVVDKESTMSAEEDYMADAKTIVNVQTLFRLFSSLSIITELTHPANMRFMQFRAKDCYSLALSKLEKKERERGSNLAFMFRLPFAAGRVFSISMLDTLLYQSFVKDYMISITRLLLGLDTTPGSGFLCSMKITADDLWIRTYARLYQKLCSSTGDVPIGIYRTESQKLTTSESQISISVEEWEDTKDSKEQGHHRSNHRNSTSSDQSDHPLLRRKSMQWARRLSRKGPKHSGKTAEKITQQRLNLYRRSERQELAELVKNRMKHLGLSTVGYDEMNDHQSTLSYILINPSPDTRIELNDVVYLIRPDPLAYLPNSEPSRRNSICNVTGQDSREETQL

[4] = target: T3, Calcium-activated potassium channel subunit alpha-1 (Homo sapiens, UniProt Q12791); assay: Inhibition of Maxi-K (unknown origin) expressed in HEK293 cells measured by thallium flux assay
T3 sequence (Q12791 whole entry): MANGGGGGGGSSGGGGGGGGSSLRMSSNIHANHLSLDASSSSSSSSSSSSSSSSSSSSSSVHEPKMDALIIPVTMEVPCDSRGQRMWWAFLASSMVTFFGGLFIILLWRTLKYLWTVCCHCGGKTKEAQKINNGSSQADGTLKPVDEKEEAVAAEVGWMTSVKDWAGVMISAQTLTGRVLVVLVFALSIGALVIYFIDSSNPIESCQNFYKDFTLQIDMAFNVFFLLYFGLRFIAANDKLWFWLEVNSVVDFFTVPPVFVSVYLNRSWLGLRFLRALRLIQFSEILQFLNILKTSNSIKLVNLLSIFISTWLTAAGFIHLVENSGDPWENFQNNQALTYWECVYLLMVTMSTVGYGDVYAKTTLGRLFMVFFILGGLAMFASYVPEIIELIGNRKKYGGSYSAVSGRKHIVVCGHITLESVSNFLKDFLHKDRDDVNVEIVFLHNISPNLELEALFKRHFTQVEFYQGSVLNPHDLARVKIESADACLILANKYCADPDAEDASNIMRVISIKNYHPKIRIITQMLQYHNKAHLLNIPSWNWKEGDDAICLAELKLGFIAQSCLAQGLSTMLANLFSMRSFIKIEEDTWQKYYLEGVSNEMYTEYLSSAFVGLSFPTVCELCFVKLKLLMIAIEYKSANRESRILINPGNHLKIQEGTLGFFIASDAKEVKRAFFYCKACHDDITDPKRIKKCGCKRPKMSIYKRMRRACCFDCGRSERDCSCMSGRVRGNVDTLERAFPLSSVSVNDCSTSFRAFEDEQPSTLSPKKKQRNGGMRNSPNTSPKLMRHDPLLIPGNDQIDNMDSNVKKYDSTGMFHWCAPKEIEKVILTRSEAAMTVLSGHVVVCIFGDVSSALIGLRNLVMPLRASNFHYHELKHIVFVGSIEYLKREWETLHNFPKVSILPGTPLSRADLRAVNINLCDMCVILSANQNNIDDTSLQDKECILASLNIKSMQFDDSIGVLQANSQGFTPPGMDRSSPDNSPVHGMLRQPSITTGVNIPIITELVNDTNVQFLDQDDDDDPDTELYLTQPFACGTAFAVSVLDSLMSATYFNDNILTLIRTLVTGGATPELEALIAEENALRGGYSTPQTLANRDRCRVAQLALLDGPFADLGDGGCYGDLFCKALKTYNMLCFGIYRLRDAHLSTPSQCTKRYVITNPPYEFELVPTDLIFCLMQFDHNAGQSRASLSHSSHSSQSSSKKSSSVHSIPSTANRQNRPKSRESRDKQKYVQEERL

[5] = Inhibition of human Slack A934T mutant expressed in HEK293 cells measured by thallium flux assay
[6] = target: T1, Potassium channel subfamily T member 1; assay: Inhibition of wild-type Slack (unknown origin) expressed in HEK293 cells measured by whole-cell electrophysiology assay
[7] = Inhibition of Slack A934T mutant (unknown origin) expressed in HEK293 cells measured by whole-cell electrophysiology assay; details: Homo sapiens
[8] = target: T4, Potassium channel subfamily T member 2 (Homo sapiens) (UniProt Q6UVM3); assay: Inhibition of Slick (unknown origin) expressed in HEK293 cells at 30 uM measured by thallium flux assay relative to control
T4 sequence (whole entry): T2 sequence (Q6UVM3 whole entry)

[9] = target: T3, Calcium-activated potassium channel subunit alpha-1; assay: Inhibition of Maxi-K (unknown origin) expressed in HEK293 cells at 30 uM measured by thallium flux assay relative to control

IC50 [1]: > 10 µM
SMILES: Cc1ccc(Cl)cc1NC(=O)CN1CCN(S(=O)(=O)N2CCC(C)CC2)CC1

EC50 [2]: 4.6 µM
SMILES: CC1CCN(S(=O)(=O)N2CCN(CC(=O)Nc3cccc(F)c3)CC2)CC1

IC50 [3]: > 10 µM
SMILES: COc1ccc(Cl)cc1NC(=O)[C@H](C)N1CCN(S(=O)(=O)N2CCC(C(F)(F)F)CC2)CC1

IC50 [3]: 4.1 µM
IC50 [4]: > 10 µM
SMILES: COc1ccc(C(F)(F)F)cc1NC(=O)CN1CCN(S(=O)(=O)N2CCC(C)CC2)CC1

IC50 [1]: > 10 µM
SMILES: COc1ccccc1NC(=O)CN1CCN(S(=O)(=O)N2CCC(C)CC2)CC1

IC50 [1]: 1.4 µM
SMILES: COc1ccc(Br)cc1NC(=O)CN1CCN(S(=O)(=O)N2CCC(C)CC2)CC1

IC50 [1]: 7.1 µM
SMILES: CCOc1ccc(Cl)cc1NC(=O)CN1CCN(S(=O)(=O)N2CCC(C)CC2)CC1

EC50 [2]: 4.1 µM
SMILES: Cc1ccc(NC(=O)CN2CCN(S(=O)(=O)N3CCC(C)CC3)CC2)cc1

EC50 [2]: > 10 µM
SMILES: COc1ccc(Cl)cc1NC(=O)CN1CCN(S(=O)(=O)N2CCN(S(=O)(=O)N3CCC(F)(F)C3)CC2)CC1

IC50 [1]: 3.5 µM
IC50 [5]: 2.1 µM
SMILES: COc1ccc(Cl)cc1NC(=O)CN1CCN(S(=O)(=O)N2CCC(C)CC2)C[C@@H]1C

IC50 [1]: > 10 µM
SMILES: COc1ccc(Cl)cc1NC(=O)CN1CCN(S(=O)(=O)N2CCC(C)CC2)[C@@H](C)C1

EC50 [2]: > 10 µM
SMILES: COc1ccc(Cl)cc1NC(=O)N1CC2(CCN(S(=O)(=O)N3CCC(C)CC3)CC2)C1

IC50 [1]: > 10 µM
SMILES: COc1ccc(C)cc1NC(=O)CN1CCN(S(=O)(=O)N2CCC(C)CC2)CC1

IC50 [1]: 6.2 µM
SMILES: COc1ccc(Cl)cc1NC(=O)N1CCCN(S(=O)(=O)N2CCC(C)CC2)CC1

IC50 [1]: 5.1 µM
SMILES: CC1CCN(S(=O)(=O)N2CCN(CC(=O)Nc3cc(Cl)ccc3OC(C)C)CC2)CC1

EC50 [2]: > 10 µM
SMILES: COc1ccc(NC(=O)CN2CCN(S(=O)(=O)N3CCC(C)CC3)CC2)cc1

EC50 [2]: > 10 µM
SMILES: COc1ccc(Cl)cc1NC(=O)CN1CCN(S(=O)(=O)N2CCN(C(=O)N3CCCCC3)CC2)CC1

IC50 [1]: 4.9 µM
IC50 [5]: 2.3 µM
SMILES: COc1ccc(F)cc1NC(=O)CN1CCN(S(=O)(=O)N2CCC(C)CC2)CC1

IC50 [1]: > 10 µM
SMILES: COc1ccc(Cl)cc1NC(=O)N1CC2(C1)CN(S(=O)(=O)N1CCC(C)CC1)C2

IC50 [1]: 13 µM
SMILES: COc1ccc(Cl)cc1NC(=O)CN1CCN(S(=O)(=O)N2CCC(C)CC2)[C@H](C)C1

IC50 [1]: 2.4 µM
IC50 [5]: 1.4 µM
IC50 [3]: > 10 µM
IC50 [6]: 1.7 µM
IC50 [7]: 1.6 µM
SMILES: COc1ccc(Cl)cc1NC(=O)CN1CCN(S(=O)(=O)N2CCC(C)CC2)CC1

IC50 [1]: 2.4 µM
IC50 [5]: 1.1 µM
IC50 [3]: > 10 µM
Efficacy [8]: 50%
IC50 [4]: > 10 µM
Efficacy [9]: 32%
IC50 [6]: 1.7 µM
IC50 [7]: 1.9 µM
SMILES: COc1ccc(Cl)cc1NC(=O)CN1CCN(S(=O)(=O)N2CCC(C)CC2)C[C@H]1C

IC50 [1]: > 10 µM
SMILES: COc1ccc(Cl)cc1NC(=O)CN(C)CCN(C)S(=O)(=O)N1CCC(C)CC1

EC50 [2]: > 10 µM
SMILES: COc1ccc(Cl)cc1NC(=O)CN1CCN(S(=O)(=O)N2CCN(C(=O)N3CCCCCC3)CC2)CC1

IC50 [1]: > 10 µM
SMILES: CCCC1CCN(C(=O)N2CCN(S(=O)(=O)N3CCN(CC(=O)Nc4cc(Cl)ccc4OC)CC3)CC2)CC1

IC50 [1]: 4.3 µM
IC50 [5]: 3.1 µM
SMILES: CCCOc1ccc(Cl)cc1NC(=O)CN1CCN(S(=O)(=O)N2CCC(C)CC2)CC1

EC50 [2]: 3.8 µM
SMILES: CC1CCN(S(=O)(=O)N2CCN(CC(=O)Nc3cc(Cl)ccc3F)CC2)CC1
